Assay results published in paper PMC3523717 (Angewandte Chemie (International ed. in English), 2012).

Biological target: T1, Aurora kinase A (AKA) (Homo sapiens, UniProt O14965)
T1 sequence (O14965 1-403): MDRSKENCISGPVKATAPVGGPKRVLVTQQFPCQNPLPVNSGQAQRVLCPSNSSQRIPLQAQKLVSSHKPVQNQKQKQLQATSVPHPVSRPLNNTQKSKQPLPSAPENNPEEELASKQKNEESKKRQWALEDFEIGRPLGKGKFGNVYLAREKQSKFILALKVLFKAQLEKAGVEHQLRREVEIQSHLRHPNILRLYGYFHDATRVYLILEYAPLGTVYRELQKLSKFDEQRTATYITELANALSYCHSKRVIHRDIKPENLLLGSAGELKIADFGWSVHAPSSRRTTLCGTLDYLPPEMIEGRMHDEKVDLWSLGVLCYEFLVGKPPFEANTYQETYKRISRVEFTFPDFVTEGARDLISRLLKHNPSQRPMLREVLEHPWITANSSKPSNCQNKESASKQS
Test: kinase activity assay
Assay type: biochemical

## MLN8054-TCO [compound 13]
  IC50: 61.8 nM
